This note sets out measurements from ChEMBL document CHEMBL1201862, “PubChem BioAssay data set” (2004).

Some test systems named below: COLO 205; HCT-15; HL-60; HOP-62; HOP-92; HT-29; K562; KM12; Malme-3M; NCI-H226; NCI-H23; RXF 393; SF-268; SF-295; SK-MEL-2; SK-MEL-5; SK-OV-3; SNB-19; U-251; UO-31.
Holding throughout (assay): DTP human tumour cell line panel, 48 h

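Five concentrations, 48 hours, 96-well plates. Abbreviation: GI50, concentration required for 50% inhibition of growth.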 The source made the active and inactive calls. No stated cut-off is given here; in the data, active = GI50 up to about 1.1 µM and inactive = higher.

Usually GI50 stands for the concentration at which growth is held to half of that of the control. Turning to `Cc1c(-c2cc3n(n2)C(c2cccs2)C(C#N)=C(c2ccccc2)N3)c(=O)n(-c2ccccc2)n1C` (stereo not given), the GI50 in the assay on COLO 205 is > 89.3 µM (inactive); in the assay with HCT-15 it was 84.1 µM; in the assay on HL-60 it was 48.9 µM (inactive); with HOP-62, > 100 µM (inactive); in the assay with HOP-92, 36 µM (inactive); with HT-29, 43.7 µM (inactive). The GI50 in the assay with K562 was > 100 µM (inactive); in the assay with KM12, 94.2 µM (inactive); with Malme-3M, > 100 µM (inactive); with NCI-H226, > 100 µM (inactive); in the assay on NCI-H23 it was > 89.5 µM (inactive); in the assay with RXF 393 it was 37.4 µM (inactive). For the same molecule, the GI50 with SF-268 is > 100 µM (inactive); in the assay on SF-295, > 74.3 µM (inactive); with SK-MEL-2, 51.6 µM (inactive); in the assay on SK-MEL-5, 28.8 µM (inactive); with SK-OV-3, > 100 µM (inactive); with SNB-19, > 100 µM (inactive). In addition, the results for the GI50 in the assay on U-251 and with UO-31 were 32.7 µM (inactive) and 77.4 µM (inactive), respectively.
On to `Cc1c2cc[n+](C)cc2c(COC2OC(CO)C(O)C2O)c2c3ccccc3n(C)c12` (stereo not given), for which the GI50 with COLO 205 was > 100 µM (inactive); with HCT-15 it was over 100 µM; in the assay on HL-60, > 100 µM (inactive); in the assay on HOP-62, 58.6 µM (inactive); in the assay with HOP-92, 77.6 µM (inactive); in the assay with HT-29, > 100 µM (inactive). The GI50 in the assay with K562 was > 100 µM (inactive); in the assay on KM12, > 100 µM (inactive); with Malme-3M it was 62.1 µM (inactive); in the assay on NCI-H226, 28.6 µM (inactive); in the assay on NCI-H23, 58.3 µM (inactive); in the assay on RXF 393, > 100 µM (inactive). The GI50 is 15.8 µM (inactive) in the assay with SF-268; 57 µM (inactive) in the assay with SF-295; > 100 µM (inactive) in the assay on SK-MEL-2; 61.8 µM (inactive) in the assay on SK-MEL-5; > 88.7 µM (inactive) with SK-OV-3; 14.5 µM (inactive) in the assay on SNB-19. Also, the values for the GI50 with U-251 and in the assay with UO-31 were 48.6 µM (inactive) and > 100 µM (inactive), respectively.
Consider `COc1ccc(C2c3cc4c(cc3OC(Nc3ccccc3)C2C)OCO4)cc1` (stereo not given), for which the GI50 was 36.1 µM (inactive) in the assay with COLO 205; 33.6 µM with HCT-15; 22.2 µM (inactive) with HL-60; > 100 µM (inactive) with HOP-62; 23.8 µM (inactive) with HOP-92; 31.7 µM (inactive) with HT-29. The GI50 in the assay on K562 was 15.2 µM (inactive); with KM12, 28.6 µM (inactive); in the assay on Malme-3M, 63.5 µM (inactive); with NCI-H226, 41.1 µM (inactive); in the assay on NCI-H23, 64 µM (inactive); in the assay on RXF 393, 33.5 µM (inactive). In addition, the GI50 is 42.9 µM (inactive) in the assay with SF-268; 25.5 µM (inactive) with SF-295; > 100 µM (inactive) in the assay with SK-MEL-2; 79.4 µM (inactive) in the assay with SK-MEL-5; > 100 µM (inactive) with SK-OV-3; > 100 µM (inactive) in the assay with SNB-19. The GI50 in the assay on U-251 was 56.8 µM (inactive); in the assay with UO-31, 29.5 µM (inactive).
